Measured values from patent US4596819A, “Modified tripeptides” (Warner-Lambert Company, priority 1984, dated 1986).

What was measured:
[1] = system: amnesia produced by electroconvulsive shock; test: reversal of electroconvulsive shock-induced amnesia, rats; format: in vivo
learning and memory = conditions: intranasal administration, young unimpaired human subjects, compared with placebo treatment; cited from earlier work
[2] = system: recall of learned information; conditions: two patients given bilateral electroconvulsive shock therapy (ECT); cited from earlier work
[3] = system: amnesia produced by electroconvulsive shock; test: reversal of electroconvulsive shock-induced amnesia, mice; format: in vivo
Method: The modified peptides in accordance with this invention are effective in treating senility, in enhancing memory, or of reversing the effects of electroconvulsive shock-induced amnesia. The effectiveness of these compounds is determined by the test designed to show the compound's ability to reverse amnesia produced by electroconvulsive shock. The test is more fully described in U.S. Pat. No. 4,145,347, issued Mar. 20, 1979, the disclosure of which is herein incorporated by reference. The only deviation in the present instance is that the compounds tested are administered orally, and the duration of the electroconvulsive shock administered is 1.0 seconds.

pole-climbing avoidance = conditions: cited from earlier work
[4] = system: amnesia produced by electroconvulsive shock; test: reversal of electroconvulsive shock-induced amnesia, mice; format: in vivo; remark: listed apart in the source

Row | Molecule | % Amnesia Reversal Rats ([1]; dose 0.001 mg/kg IM) | Amnesia reversal rating, rats ([1]; dose 0.001 mg/kg IM) | % Amnesia Reversal Rats ([1]; dose 0.010 mg/kg IM) | Amnesia reversal rating, rats ([1]; dose 0.010 mg/kg IM) | % Amnesia Reversal Rats ([1]; dose 0.100 mg/kg IM) | Amnesia reversal rating, rats ([1]; dose 0.100 mg/kg IM) | also measured
1 | Cc1ccc(S(=O)(=O)N2CCCC2CN[C@@H](CC(C)C)C(=O)NCC(N)=O)cc1 (stereo partly drawn) [TosPro[CH2 NH]DLeuGlyNH2, (S)-N^2-[[1-[(4-Methylphenyl)sulfonyl]-2-pyrrolidinyl]methyl]-D-Leucylglycinamide] | 0% | N (0 to 25 percent amnesia reversal (inactive=N)) | 0% | N (0 to 25 percent amnesia reversal (inactive=N)) | 34% | C (25 to 39 percent amnesia reversal (borderline activity=C)) | 
2 | 1-desamino-8-D-arginine vasopressin [DDAVP] |  |  |  |  |  |  | effect on learning and memory (learning and memory): increases in learning and memory; effect on recall of learned information [2]: Positive effects on recall of learned information
3 | CC(C)CC(CSCC(=O)O)NC(=O)C1CC(=O)CN1C(=O)OCc1ccccc1 (stereo not drawn) [Z4-Keto ProLeu[CH2 S]Gly, [S-(R*,R*)]-Phenylmethyl 2-[[[1-[[(carboxymethyl)thio]methyl]-3-methylbutyl]amino]carbonyl]-4-oxo-1-pyrrolidinecarboxylate] | 17% | N (0 to 25 percent amnesia reversal (inactive=N)) | 50% | A (40 percent or more amnesia reversal (active=A)) | 83% | A (40 percent or more amnesia reversal (active=A)) | 
4 | NC(=O)COCC(Cc1ccccc1)NC(=O)[C@@H]1CCCN1C(=O)OCc1ccccc1 (stereo partly drawn) [ZProPhe[CH2 O]GlyNH2, (2S)-Phenylmethyl 2[[[1-[(2-amino-2-oxoethoxy)methyl]-2-phenylethyl]amino]carbonyl]-1-pyrrolidinecarboxylate] | 11% | N (0 to 25 percent amnesia reversal (inactive=N)) | 0% | N (0 to 25 percent amnesia reversal (inactive=N)) | 0% | N (0 to 25 percent amnesia reversal (inactive=N)) | % Amnesia Reversal Mice ([3]; dose 1 mg/kg PO): 20%; Amnesia reversal rating, mice ([3]; dose 1 mg/kg PO): N (0 to 25 percent amnesia reversal (inactive=N)); % Amnesia Reversal Mice ([3]; dose 10 mg/kg PO): 59%; Amnesia reversal rating, mice ([3]; dose 10 mg/kg PO): A (40 percent or more amnesia reversal (active=A)); % Amnesia Reversal Mice ([3]; dose 100 mg/kg PO): 71%; Amnesia reversal rating, mice ([3]; dose 100 mg/kg PO): A (40 percent or more amnesia reversal (active=A))
5 | Pro-Arg-Gly-NH2 |  |  |  |  |  |  | activity in the rat pole-climbing avoidance test (pole-climbing avoidance): active
6 | CC(C)C[C@@H](CNCC(N)=O)NC(=O)[C@@H]1CCCN1C(=O)OCc1ccccc1.Cl (relative stereo) [ZProLeu[CH2 NH]GlyNH2, [S-(R*,R*)]-2-[[[1-[[(2-Amino-2-oxoethyl)-amino]methyl]-3-methylbutyl]amino]-carbonyl]-1-pyrrolidinecarboxylic acid, phenylmethyl ester, monohydrochloride] | 43% | A (40 percent or more amnesia reversal (active=A)) | 43% | A (40 percent or more amnesia reversal (active=A)) | 43% | A (40 percent or more amnesia reversal (active=A)) | 
7 | CC(C)C[C@@H](CSCC(=O)O)NC(=O)[C@@H]1CCC(=O)N1C(=O)OCc1ccccc1 (relative stereo) [Z3-KetoProLeu[CH2 S]Gly, [S-(R*,R*)]-Phenylmethyl 5-oxo-2-[[[1-[[(carboxymethyl)thio]methyl]-3-methylbutyl]amino]carbonyl]-1-pyrrolidinecarboxylate] | 33% | C (25 to 39 percent amnesia reversal (borderline activity=C)) | 0% | N (0 to 25 percent amnesia reversal (inactive=N)) | 0% | N (0 to 25 percent amnesia reversal (inactive=N)) | 
8 | CC(C)C[C@H](NC[C@@H]1CCCN1C(=O)OCc1ccccc1)C(=O)NCC(N)=O (relative stereo) [ZPro[CH2 NH]LeuGlyNH2, [S-(R*,R*)]-2-[[[[1-[(2-Amino-2-oxoethyl)amino]carbonyl]-3-methylbutyl]amino]methyl]-1-pyrrolidinecarboxylic acid, phenylmethyl ester] | 11% | N (0 to 25 percent amnesia reversal (inactive=N)) | 0% | N (0 to 25 percent amnesia reversal (inactive=N)) | 0% | N (0 to 25 percent amnesia reversal (inactive=N)) | % Amnesia Reversal Mice ([3]; dose 1 mg/kg PO): 85%; Amnesia reversal rating, mice ([3]; dose 1 mg/kg PO): A (40 percent or more amnesia reversal (active=A)); % Amnesia Reversal Mice ([3]; dose 10 mg/kg PO): 67%; Amnesia reversal rating, mice ([3]; dose 10 mg/kg PO): A (40 percent or more amnesia reversal (active=A)); % Amnesia Reversal Mice ([3]; dose 100 mg/kg PO): 57%; Amnesia reversal rating, mice ([3]; dose 100 mg/kg PO): A (40 percent or more amnesia reversal (active=A))
9 | NC(=O)CC[C@@H]1NC(=O)[C@H](Cc2ccccc2)NC(=O)[C@H](Cc2ccc(O)cc2)NC(=O)[C@@H](N)CSSC[C@@H](C(=O)N2CCC[C@H]2C(=O)N[C@@H](CCCN=C(N)N)C(=O)NCC(N)=O)NC(=O)[C@H](CC(N)=O)NC1=O [vasopressin] |  |  |  |  |  |  | effect on learning and memory (learning and memory): increases in learning and memory
10 | CC(C)CC(CSCC(=O)O)NC(=O)C1CCCN1C(=O)OCc1ccccc1 (stereo not drawn) [ZProLeu[CH2 S]Gly, [2S-(R*,R*)]-Phenylmethyl2-[[[1-[[(carboxymethyl)thio]methyl]-3-methylbutyl]amino]carbonyl]-1-pyrrolidinecarboxylate] | 57% | N (0 to 25 percent amnesia reversal (inactive=N)) | 57% | A (40 percent or more amnesia reversal (active=A)) | 14% | N (0 to 25 percent amnesia reversal (inactive=N)) | % Amnesia Reversal Mice ([4]; dose 0.1 mg/kg IM): 69%; Amnesia reversal rating, mice ([4]; dose 0.1 mg/kg IM): A (40 percent or more amnesia reversal (active=A)); % Amnesia Reversal Mice ([4]; dose 1.0 mg/kg IM): 77%; Amnesia reversal rating, mice ([4]; dose 1.0 mg/kg IM): A (40 percent or more amnesia reversal (active=A)); % Amnesia Reversal Mice ([4]; dose 10.0 mg/kg IM): 69%; Amnesia reversal rating, mice ([4]; dose 10.0 mg/kg IM): A (40 percent or more amnesia reversal (active=A))
